Data as given in PubChem BioAssay (NCI).
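Following 48 hours of exposure in 96-well plates, responses at five concentrations were used to interpolate endpoints linearly. GI50 is the concentration that inhibits growth by half. TGI marks complete inhibition of growth.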

Columns and labels:
Experiment in all cases: growth of human tumour cells (NCI), 48 h
SK-MEL-28 melanoma = tested on: SK-MEL-28 melanoma
HCC-2998 colon = tested on: HCC-2998 colon
OVCAR-5 ovarian = tested on: OVCAR-5 ovarian
A549 NSCLC = tested on: A549 NSCLC
NCI-H460 lung = tested on: NCI-H460 lung
SK-OV-3 ovarian = tested on: SK-OV-3 ovarian
SK-MEL-2 melanoma = tested on: SK-MEL-2 melanoma
KM12 colon = tested on: KM12 colon
SF-268 CNS = tested on: SF-268 CNS
NCI/ADR-RES ovarian = tested on: NCI/ADR-RES ovarian

Structure (SMILES) | TGI (SK-MEL-28 melanoma) [µM] | TGI (HCC-2998 colon) [µM] | TGI (OVCAR-5 ovarian) [µM] | TGI (A549 NSCLC) [µM] | TGI (NCI-H460 lung) [µM] | TGI (SK-OV-3 ovarian) [µM] | TGI (SK-MEL-2 melanoma) [µM] | TGI (KM12 colon) [µM] | TGI (SF-268 CNS) [µM] | TGI (NCI/ADR-RES ovarian) [µM] | GI50 (SK-MEL-28 melanoma) [µM] | GI50 (NCI/ADR-RES ovarian) [µM] | GI50 (HCC-2998 colon) [µM] | GI50 (OVCAR-5 ovarian) [µM] | GI50 (A549 NSCLC) [µM] | GI50 (SK-OV-3 ovarian) [µM] | GI50 (SK-MEL-2 melanoma) [µM] | GI50 (KM12 colon) [µM] | GI50 (SF-268 CNS) [µM] | GI50 (NCI-H460 lung) [µM]
CCCCCCCCCCCCCCCCOC(=O)c1cc(O)cc(C(=O)OCCCCCCCCCCCCCCCC)c1 | > 100 | > 100 | > 100 | > 100 | > 100 | > 100 | > 100 | > 100 | > 100 | – | – | – | – | – | – | – | – | – | – | –
O=C1c2ccccc2C(=O)c2nc3ccc(Cl)cc3cc21 | > 100 | > 100 | > 100 | > 100 | > 100 | > 100 | > 100 | > 100 | > 100 | – | – | – | – | – | – | – | – | – | – | –
CCSC(SCC)=C1C(=O)N(c2ccccc2)N=C1C | 26.5 | 27.6 | 29.9 | 35.1 | 29.5 | 33.4 | 33 | 35.3 | 29.1 | – | – | – | – | – | – | – | – | – | – | –
COC(=O)/C(=N/NC(N)=O)C(C(=O)OC)C(=O)C(=O)Nc1ccc(Cl)cc1 (stereo unspecified) | > 100 | > 100 | > 100 | > 100 | > 100 | > 100 | > 100 | > 100 | > 100 | – | – | – | – | – | – | – | – | – | – | –
COc1ccc(CCN=C2CCC(C(=O)NCCc3ccc(OC)c(OC)c3)N2)cc1OC (stereo unspecified) | > 100 | > 100 | > 100 | > 100 | > 100 | > 100 | > 100 | > 100 | > 100 | – | – | – | – | – | – | – | – | – | – | –
COc1ccccc1NC(=O)C(CC(C(=O)Nc1ccccc1OC)/C(C)=N/Nc1ccc([N+](=O)[O-])cc1[N+](=O)[O-])/C(C)=N/Nc1ccc([N+](=O)[O-])cc1[N+](=O)[O-] (stereo unspecified) | > 100 | > 100 | > 100 | > 100 | > 100 | > 100 | > 100 | > 100 | > 100 | – | – | – | – | – | – | – | – | – | – | –
CCN(CC)CCN(C(=O)C(C)(C)C)c1ccccc1N | > 100 | – | > 100 | > 100 | > 100 | > 100 | – | > 100 | > 100 | > 100 | – | – | – | – | – | – | – | – | – | –
CCOC(=O)C(NC(=O)c1[nH]cnc1/N=N/N(C)C)C(C)C (stereo unspecified) | > 100 | > 100 | > 100 | > 100 | > 100 | > 100 | > 100 | > 100 | > 100 | – | – | – | – | – | – | – | – | – | – | –
CC(NC(=O)c1ccccc1)(C(=O)O)C(=O)O | > 100 | – | > 100 | > 100 | > 100 | > 100 | > 100 | > 100 | > 100 | > 100 | – | – | – | – | – | – | – | – | – | –
CCOC(=O)C1COc2cc(-c3cc(=O)c4ccccc4o3)ccc2O1 (stereo unspecified) | > 100 | > 100 | > 100 | > 100 | > 100 | > 100 | > 100 | > 100 | > 100 | – | – | – | – | – | – | – | – | – | – | –
CNC(=O)CN(CC(N)=O)C(N)=O | > 100 | > 100 | > 100 | > 100 | > 100 | > 100 | > 100 | > 100 | > 100 | – | – | – | – | – | – | – | – | – | – | –
CCCCCCCCCCCCCc1nn[nH]n1 | 31.7 | 33.7 | 33 | 40.7 | 40.6 | 47.3 | 33.1 | 32.9 | 40.5 | – | – | – | – | – | – | – | – | – | – | –
CC1CC[C@]2(C(=O)O)CCC3(C)C(=CCC4[C@@]5(C)CC[C@H](OS(=O)(=O)c6ccccc6)C(C)(C)C5CC[C@]43C)[C@@H]2[C@H]1C (stereo partly specified) | > 100 | > 100 | > 100 | > 100 | > 100 | > 100 | > 100 | > 100 | > 100 | – | – | – | – | – | – | – | – | – | – | –
Cc1ccc(NC(=O)CC(=O)N2N=C(N(CCC#N)c3cccc(C)c3)CC2c2ccccc2)cc1 (stereo unspecified) | > 100 | > 100 | > 100 | > 100 | > 100 | > 100 | > 100 | > 100 | > 100 | – | – | – | – | – | – | – | – | – | – | –
O=S(=O)(c1ccc(O)c(C=Nc2ccc(Cl)cc2)c1)c1ccc(O)c(C=Nc2ccc(Cl)cc2)c1 | > 100 | > 100 | > 100 | > 100 | > 100 | > 100 | > 100 | > 100 | > 100 | – | – | – | – | – | – | – | – | – | – | –
CC1(C)CC[C@]2(C(N)=O)CC[C@]3(C)C(=CC[C@@H]4[C@@]5(C)C/C(=C/c6ccncc6)C(=O)C(C)(C)[C@@H]5CC[C@]43C)[C@@H]2C1 | 3.39 | 3.45 | 3.16 | 8.22 | – | 11.9 | 3.97 | 3.41 | 5.49 | 6.99 | 1.81 | 2.42 | 1.87 | 1.61 | 2.35 | 3.13 | 1.92 | 1.79 | 2.15 | –
Cc1cc(Cl)cc2c1NC(=O)C2=O (tested in a mixture with another compound) | > 100 | > 100 | > 100 | > 100 | > 100 | > 100 | > 100 | > 100 | > 100 | – | – | – | – | – | – | – | – | – | – | –
Cc1c(C(=O)CSc2nc3ccccc3[nH]2)c(=O)n(-c2ccccc2)n1C | > 100 | > 100 | > 100 | > 100 | > 100 | > 100 | > 100 | > 100 | > 100 | – | – | – | – | – | – | – | – | – | – | –
COc1cccc(/C=C/C(=O)c2cc3c(N)c(C(=O)Nc4cccc5ccccc45)sc3nc2C)c1 | – | 2.79 | 4.6 | > 50 | 3.45 | > 50 | > 50 | 4.77 | > 50 | 5.75 | – | 1.33 | 1.14 | 1.42 | 1.46 | 2.24 | 1.71 | 1.4 | 1.89 | 1.22
CN(C=O)/C=C/c1cc(O)ccc1O | > 58.3 | > 100 | 63.9 | > 100 | > 74.7 | > 100 | 59.5 | > 100 | 48.5 | – | – | – | – | – | – | – | – | – | – | –
C#CCN(Cc1ccc2nc(N)[nH]c(=O)c2c1)c1ccc(C(=O)NC(CCC(=O)O)C(=O)O)cc1 (stereo unspecified) | > 100 | > 100 | > 100 | > 100 | > 100 | > 100 | – | > 100 | > 100 | > 100 | – | – | – | – | – | – | – | – | – | –
